Calls of active or inactive are those of the source.
Legend:
[1] = target: Potassium voltage-gated channel subfamily KQT member 2 (Rattus norvegicus, UniProt O88943); assay: potentiation of rat KCNQ2 current – cell-based, retigabine-insensitive compounds, dose response (AID 2654); assay type: functional
[2] = target: T1, Polyadenylate-binding protein 1 (Homo sapiens, UniProt P11940); assay: MLLE binding blockers, Cy5 peptide tracer – biochemical, fluorescence polarization, Cy5-PAM2 peptide, secondary, miRNA deadenylation inhibitor project, dose response (AID 602260); assay type: functional; details: read-out: IC50_Mean
[3] = target: T1, Polyadenylate-binding protein 1; assay: MLLE domain peptide-binding blockers, IC50 – biochemical, fluorescence polarization, FITC-PAM2 peptide, dose response (AID 602259); assay type: functional; details: read-out: IC50_Mean
[4] = tested on: BJ; assay: BJ-TERT fibroblast viability loss – cell-based, RAS-independent, luminescence, dose response (AID 1933); assay type: functional; details: Homo sapiens
[5] = tested on: BJ; assay: cells; assay type: functional, cell-based; details: Homo sapiens
[6] = tested on: J774.A1; assay: Confirmation of image-based Screening Assay for Inhibitors of Phagocytosis. [Related pubchem assays (depositor defined):AID1029, AID1643]; assay type: functional, cell-based; details: Mus musculus
[7] = tested on: BJ; assay: BJ-TERT-LT-ST fibroblast viability loss – cell-based, RAS-independent, luminescence, dose response (AID 1935); assay type: functional; details: Homo sapiens;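 also: BJ fibroblasts immortalized with TERT plus LT and ST oncogenes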
[8] = DRD fibroblast viability loss – cell-based, non-viral oncogenic, luminescence, dose response (AID 1934); assay type: functional; details: Homo sapiens
[9] = HEK-293T viability loss after treatment – luminescence, T-cell screen hits, cytotoxicity control for TCR NF-kB inhibitor project, dose response (AID 489026); assay type: functional, cell-based;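 also: cells exposed to compound about 14 hours before the viability readout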
[10] = tested on: Salmon testes DNA; assay: acridine orange-DNA binding displacement – biochemical, fluorescence polarization, cherry-picked samples, set 2, artefact control for KSHV LANA DNA-binding inhibitor project, dose response (AID 504727); set-up: species or system Salmonidae
[11] = target: T2, ORF 73 (Human herpesvirus 8, UniProt O40947); assay: KSHV LANA DNA-binding disruption – biochemical, fluorescence polarization, cherry-picked samples, dose response (AID 504725); set-up: species or system Human gammaherpesvirus 8;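 also: fluorescence polarization of a labeled DNA duplex reporting LANA DNA binding; potency is for inhibitors that block LANA binding to the DNA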
T2 sequence (O40947 whole entry): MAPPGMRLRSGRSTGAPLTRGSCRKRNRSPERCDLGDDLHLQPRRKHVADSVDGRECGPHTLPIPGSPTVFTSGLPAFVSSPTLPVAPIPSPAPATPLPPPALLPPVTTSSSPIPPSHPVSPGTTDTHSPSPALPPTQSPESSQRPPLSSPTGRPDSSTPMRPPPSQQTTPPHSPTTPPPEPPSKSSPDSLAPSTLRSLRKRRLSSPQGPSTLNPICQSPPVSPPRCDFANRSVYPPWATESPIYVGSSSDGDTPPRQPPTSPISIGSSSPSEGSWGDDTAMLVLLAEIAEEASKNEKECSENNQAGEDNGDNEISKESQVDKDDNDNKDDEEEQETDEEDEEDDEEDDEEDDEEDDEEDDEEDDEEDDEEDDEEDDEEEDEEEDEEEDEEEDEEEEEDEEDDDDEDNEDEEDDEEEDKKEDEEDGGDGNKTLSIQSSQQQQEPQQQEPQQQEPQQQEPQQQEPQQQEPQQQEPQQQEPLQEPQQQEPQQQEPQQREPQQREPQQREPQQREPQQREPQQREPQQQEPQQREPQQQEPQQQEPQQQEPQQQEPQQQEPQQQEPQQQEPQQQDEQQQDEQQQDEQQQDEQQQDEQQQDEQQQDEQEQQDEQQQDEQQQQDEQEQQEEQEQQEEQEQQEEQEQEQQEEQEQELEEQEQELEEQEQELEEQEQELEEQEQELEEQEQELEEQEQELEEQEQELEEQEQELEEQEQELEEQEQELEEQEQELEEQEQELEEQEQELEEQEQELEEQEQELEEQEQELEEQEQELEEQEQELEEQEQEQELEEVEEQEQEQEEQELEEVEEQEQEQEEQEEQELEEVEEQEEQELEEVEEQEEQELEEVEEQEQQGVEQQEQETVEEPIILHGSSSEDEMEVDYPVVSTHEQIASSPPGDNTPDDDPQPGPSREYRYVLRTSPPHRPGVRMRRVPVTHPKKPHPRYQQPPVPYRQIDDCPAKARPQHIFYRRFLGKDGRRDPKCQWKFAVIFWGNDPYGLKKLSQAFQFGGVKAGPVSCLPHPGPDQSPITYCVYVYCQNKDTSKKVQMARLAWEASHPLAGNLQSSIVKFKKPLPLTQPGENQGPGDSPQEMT

[12] = target: Dual specificity protein phosphatase 3 (Homo sapiens, UniProt P51452); assay: inhibition constants for human DUSP3 – biochemical, colorimetric, SAR follow-up (AID 2004)
[13] = target: T3, Heat shock factor protein 1 (Mus musculus, UniProt P38532); assay: decrease of HSF1-responsive luciferase luminescence – cell-based, NIH3T3, dose retest, confirmation (AID 2382); assay type: functional;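 also: NIH3T3 fibroblasts with HSF1-driven luciferase reporter stressed by proteasome inhibitor MG132; luminescence from HSF1-driven luciferase expression after 8 hours of MG132 stress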
T3 sequence (P38532 whole entry): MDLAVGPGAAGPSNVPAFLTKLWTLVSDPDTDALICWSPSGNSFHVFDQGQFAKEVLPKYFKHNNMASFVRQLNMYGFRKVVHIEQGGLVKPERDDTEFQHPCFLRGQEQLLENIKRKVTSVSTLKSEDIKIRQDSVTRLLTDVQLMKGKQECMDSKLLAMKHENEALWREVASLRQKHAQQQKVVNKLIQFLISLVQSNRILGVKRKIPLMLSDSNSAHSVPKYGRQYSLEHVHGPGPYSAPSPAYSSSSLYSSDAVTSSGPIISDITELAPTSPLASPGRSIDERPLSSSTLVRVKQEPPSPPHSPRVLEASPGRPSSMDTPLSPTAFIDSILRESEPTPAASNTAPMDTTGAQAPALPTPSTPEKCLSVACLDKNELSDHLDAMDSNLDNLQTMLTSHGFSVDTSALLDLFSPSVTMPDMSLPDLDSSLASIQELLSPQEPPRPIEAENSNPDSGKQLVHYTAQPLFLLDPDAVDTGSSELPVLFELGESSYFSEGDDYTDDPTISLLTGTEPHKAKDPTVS

[14] = target: Protein Rev (Human immunodeficiency virus type 1 group M subtype B (isolate HXB2)(HIV-1), UniProt P04618); assay: blockers of HIV Rev/RRE RNA complex – biochemical, fluorescence polarization, HIV-1, dose response (AID 434976); set-up: species or system Human immunodeficiency virus 1
[15] = target: Female germline-specific tumor suppressor gld-1 (Caenorhabditis elegans, UniProt Q17339); assay: blockers of GLD-1/TGE RNA complex formation – biochemical, fluorescence polarization, C. elegans, dose response (AID 2802);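 also: fluorescence polarization of labeled TGE RNA bound by purified gld-1 protein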
[16] = target: T4, RNA-binding protein pos-1 (Caenorhabditis elegans, UniProt G5EF15); assay: disruptors of C. elegans POS-1 RNA interaction – biochemical, fluorescence polarization, dose response (AID 1964);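 also: purified POS-1 fused to maltose binding protein made in E. coli; potency of compounds blocking POS-1 binding to fluorescent RNA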
T4 sequence (G5EF15 whole entry): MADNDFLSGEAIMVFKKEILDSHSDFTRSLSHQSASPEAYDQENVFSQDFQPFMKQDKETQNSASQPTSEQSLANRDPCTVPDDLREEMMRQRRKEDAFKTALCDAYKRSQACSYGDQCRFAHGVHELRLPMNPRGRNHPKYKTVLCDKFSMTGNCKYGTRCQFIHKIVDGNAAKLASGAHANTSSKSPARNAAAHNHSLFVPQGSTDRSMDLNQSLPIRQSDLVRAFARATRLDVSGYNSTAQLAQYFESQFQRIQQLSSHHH

[17] = target: T5, Zinc finger protein mex-5 (Caenorhabditis elegans, UniProt Q9XUB2); assay: potency of MEX-5 RNA-binding blockers – biochemical, C. elegans, fluorescence polarization, dose response (AID 1960)
T5 sequence (Q9XUB2 whole entry): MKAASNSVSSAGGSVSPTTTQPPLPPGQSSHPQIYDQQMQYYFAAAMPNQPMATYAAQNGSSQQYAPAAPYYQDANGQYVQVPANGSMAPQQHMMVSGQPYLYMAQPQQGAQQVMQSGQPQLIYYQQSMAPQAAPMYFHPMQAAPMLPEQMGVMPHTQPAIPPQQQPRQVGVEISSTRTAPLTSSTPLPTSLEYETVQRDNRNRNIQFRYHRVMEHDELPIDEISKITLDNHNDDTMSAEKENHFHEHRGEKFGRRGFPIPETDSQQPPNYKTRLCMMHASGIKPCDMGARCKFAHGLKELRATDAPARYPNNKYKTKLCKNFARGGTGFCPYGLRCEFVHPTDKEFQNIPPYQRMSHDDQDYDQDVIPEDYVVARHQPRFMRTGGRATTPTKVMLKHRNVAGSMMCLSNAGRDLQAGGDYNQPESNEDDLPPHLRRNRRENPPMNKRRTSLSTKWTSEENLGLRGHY

[18] = NIH-3T3 fibroblast cytotoxicity, dose response, cytotoxicity control, cell-based, fluorescence, Alamar Blue, secondary assay (AID 2327); assay type: functional;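 also: NIH-3T3 mouse fibroblasts cultured with fluconazole at 8 µg/mL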
[19] = fluconazole-exposed Candida albicans growth modulators – fluorescence, retest, confirmation (AID 2467); assay type: functional, cell-based
[20] = target: T6, Serine/threonine-protein phosphatase (Candida dubliniensis (strain CD36 / CBS 7987 / NCPF 3949 / NRRLY-17841) (Yeast), UniProt B9W6M3); assay: blockers of CaCl2-induced CDRE-lacZ signaling – S. cerevisiae, luminescence, secondary, dose response (AID 2388); assay type: functional, cell-based;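 also: yeast reporter cells carrying a calcineurin-responsive lacZ construct stimulated with calcium chloride; luminescent beta-galactosidase reporter signal in whole cells rather than isolated phosphatase activity; potency for inhibition where a drop in reporter signal means calcineurin blockade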
T6 sequence (B9W6M3 whole entry): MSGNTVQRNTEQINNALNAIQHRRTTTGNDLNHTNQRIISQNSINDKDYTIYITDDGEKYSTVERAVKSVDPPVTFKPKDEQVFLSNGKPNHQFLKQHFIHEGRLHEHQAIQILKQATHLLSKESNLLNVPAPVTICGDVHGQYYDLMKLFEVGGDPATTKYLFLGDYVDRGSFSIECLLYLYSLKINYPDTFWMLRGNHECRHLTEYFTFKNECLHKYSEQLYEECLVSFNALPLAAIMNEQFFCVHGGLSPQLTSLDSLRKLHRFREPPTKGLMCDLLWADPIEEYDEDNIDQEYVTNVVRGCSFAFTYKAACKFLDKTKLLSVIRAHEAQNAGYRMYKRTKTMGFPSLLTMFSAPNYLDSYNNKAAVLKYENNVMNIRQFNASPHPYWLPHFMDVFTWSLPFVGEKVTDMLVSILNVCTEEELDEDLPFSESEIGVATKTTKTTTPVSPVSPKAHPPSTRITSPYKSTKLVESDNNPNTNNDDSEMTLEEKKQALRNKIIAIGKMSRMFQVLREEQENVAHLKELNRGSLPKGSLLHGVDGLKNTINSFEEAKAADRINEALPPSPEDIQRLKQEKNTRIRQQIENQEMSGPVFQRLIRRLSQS

[21] = target: NACHT, LRR and PYD domains-containing protein 3 (Homo sapiens, UniProt Q96P20); assay: NALP3 inhibitors in yeast, dose response, luminescent (AID 488799); assay type: functional
[22] = THP-1 cell cytotoxicity, dose response, cytotoxicity control for non-replicating M. tuberculosis project (AID 489025); assay type: functional
[23] = HepG2 cell cytotoxicity, dose response, cytotoxicity control for non-replicating M. tuberculosis project (AID 489018); assay type: functional; details: Mycobacterium tuberculosis
[24] = Vero E6 cell cytotoxicity, dose response, cytotoxicity control for non-replicating M. tuberculosis project, secondary assay (AID 492998); assay type: functional, VeroE6; details: Vero C1008
[25] = cells; assay type: functional
[26] = target: ATP-dependent molecular chaperone HSP82 (Candida albicans (strain WO-1) (Yeast), UniProt C4YTQ8); assay: steroid-induced GRE reporter decrease in yeast – S. cerevisiae, luminescence, Hsp90 inhibitor project, dose response (AID 2400); assay type: functional, cell-based;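 also: beta-galactosidase luminescence from glucocorticoid response element reporter as proxy for Hsp90 function; inhibitor potency where signal loss means Hsp90 inhibition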
[27] = target: Phosphoethanolamine/phosphocholine phosphatase (Homo sapiens, UniProt Q8TCT1); assay: SAR assay for compounds that inhibit PHOSPHO1. [Related pubchem assays (depositor defined):AID1545, AID1565, AID1574]
[28] = target: Cytochrome P450 2D6 (Homo sapiens, UniProt P10635);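 also: CYP2D6 member of a cytochrome P450 panel assay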
Cytochrome P450 2D6, sequence (P10635 whole entry): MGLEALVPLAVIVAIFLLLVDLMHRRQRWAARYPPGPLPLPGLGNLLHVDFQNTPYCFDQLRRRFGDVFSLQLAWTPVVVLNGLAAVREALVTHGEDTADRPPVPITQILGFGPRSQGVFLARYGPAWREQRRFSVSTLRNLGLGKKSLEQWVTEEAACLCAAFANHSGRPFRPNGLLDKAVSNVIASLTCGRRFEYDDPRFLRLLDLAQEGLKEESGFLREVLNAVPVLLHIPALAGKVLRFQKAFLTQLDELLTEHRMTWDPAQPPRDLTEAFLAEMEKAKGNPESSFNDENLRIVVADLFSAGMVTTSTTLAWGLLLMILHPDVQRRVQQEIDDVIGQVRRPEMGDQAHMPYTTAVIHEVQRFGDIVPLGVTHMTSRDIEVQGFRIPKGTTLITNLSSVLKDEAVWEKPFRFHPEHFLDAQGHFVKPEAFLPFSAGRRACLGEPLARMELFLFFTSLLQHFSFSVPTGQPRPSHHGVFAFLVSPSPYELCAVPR

T1 sequence (P11940 whole entry, the tested form may be a part): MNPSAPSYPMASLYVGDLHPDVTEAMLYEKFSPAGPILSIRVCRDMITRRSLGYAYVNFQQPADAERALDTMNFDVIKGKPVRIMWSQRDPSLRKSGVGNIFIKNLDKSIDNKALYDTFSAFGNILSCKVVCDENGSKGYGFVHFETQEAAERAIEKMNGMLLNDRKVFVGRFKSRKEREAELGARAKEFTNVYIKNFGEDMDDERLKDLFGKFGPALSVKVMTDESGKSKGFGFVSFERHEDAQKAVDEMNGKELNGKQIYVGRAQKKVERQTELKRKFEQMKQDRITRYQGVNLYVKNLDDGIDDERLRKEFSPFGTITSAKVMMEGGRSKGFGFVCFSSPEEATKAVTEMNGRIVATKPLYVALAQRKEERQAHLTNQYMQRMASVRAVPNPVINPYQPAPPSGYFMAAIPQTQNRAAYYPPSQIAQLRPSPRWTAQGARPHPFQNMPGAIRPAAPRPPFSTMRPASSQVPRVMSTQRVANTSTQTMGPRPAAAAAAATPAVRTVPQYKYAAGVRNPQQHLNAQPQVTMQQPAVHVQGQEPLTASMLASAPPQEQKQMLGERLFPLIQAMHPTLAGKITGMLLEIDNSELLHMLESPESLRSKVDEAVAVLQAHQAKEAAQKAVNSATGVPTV
NACHT, LRR and PYD domains-containing protein 3, sequence (Q96P20 whole entry, the tested form may be a part): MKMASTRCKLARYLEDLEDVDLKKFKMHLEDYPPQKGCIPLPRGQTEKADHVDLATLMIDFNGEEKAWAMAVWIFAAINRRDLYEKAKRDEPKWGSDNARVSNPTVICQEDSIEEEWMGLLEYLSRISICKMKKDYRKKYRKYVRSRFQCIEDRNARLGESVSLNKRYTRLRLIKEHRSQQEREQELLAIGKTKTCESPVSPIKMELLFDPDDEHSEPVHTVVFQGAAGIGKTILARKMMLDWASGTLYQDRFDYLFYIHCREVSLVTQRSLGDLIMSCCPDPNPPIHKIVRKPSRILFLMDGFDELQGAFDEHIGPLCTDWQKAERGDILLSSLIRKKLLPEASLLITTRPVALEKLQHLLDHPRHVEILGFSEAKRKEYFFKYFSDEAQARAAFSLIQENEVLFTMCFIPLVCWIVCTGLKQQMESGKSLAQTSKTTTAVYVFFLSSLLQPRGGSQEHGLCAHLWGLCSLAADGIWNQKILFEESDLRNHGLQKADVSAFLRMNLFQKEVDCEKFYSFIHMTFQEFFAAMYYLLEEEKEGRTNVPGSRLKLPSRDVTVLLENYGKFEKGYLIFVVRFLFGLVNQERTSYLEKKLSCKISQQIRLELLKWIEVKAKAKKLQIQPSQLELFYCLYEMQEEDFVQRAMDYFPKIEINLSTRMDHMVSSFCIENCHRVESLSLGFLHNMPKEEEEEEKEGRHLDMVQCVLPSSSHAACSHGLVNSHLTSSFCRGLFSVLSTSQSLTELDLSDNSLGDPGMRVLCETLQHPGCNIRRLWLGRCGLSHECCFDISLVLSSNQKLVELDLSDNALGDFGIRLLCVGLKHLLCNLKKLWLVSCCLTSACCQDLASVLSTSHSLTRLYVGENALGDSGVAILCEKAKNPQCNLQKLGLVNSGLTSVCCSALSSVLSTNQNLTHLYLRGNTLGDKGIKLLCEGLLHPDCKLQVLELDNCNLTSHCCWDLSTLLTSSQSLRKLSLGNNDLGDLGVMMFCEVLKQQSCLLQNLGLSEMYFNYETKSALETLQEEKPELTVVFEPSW
ATP-dependent molecular chaperone HSP82, sequence (C4YTQ8 whole entry): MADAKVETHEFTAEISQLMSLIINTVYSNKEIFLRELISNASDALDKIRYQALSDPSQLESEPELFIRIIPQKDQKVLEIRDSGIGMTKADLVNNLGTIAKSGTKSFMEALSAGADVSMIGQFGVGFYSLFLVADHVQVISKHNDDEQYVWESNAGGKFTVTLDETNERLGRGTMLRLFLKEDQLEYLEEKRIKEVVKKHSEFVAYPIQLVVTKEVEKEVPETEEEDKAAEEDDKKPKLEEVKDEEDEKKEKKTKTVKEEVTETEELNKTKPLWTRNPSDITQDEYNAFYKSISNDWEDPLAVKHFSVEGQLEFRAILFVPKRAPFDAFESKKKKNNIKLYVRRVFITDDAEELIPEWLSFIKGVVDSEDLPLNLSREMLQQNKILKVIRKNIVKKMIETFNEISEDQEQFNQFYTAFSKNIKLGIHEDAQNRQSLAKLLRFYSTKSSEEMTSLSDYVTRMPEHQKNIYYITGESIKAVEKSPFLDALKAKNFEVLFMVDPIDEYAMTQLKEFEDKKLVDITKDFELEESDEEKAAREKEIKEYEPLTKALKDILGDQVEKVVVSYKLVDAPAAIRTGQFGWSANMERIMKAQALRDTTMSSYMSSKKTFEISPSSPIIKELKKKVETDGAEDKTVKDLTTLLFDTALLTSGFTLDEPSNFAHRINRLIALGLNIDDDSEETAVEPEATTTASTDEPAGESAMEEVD
Potassium voltage-gated channel subfamily KQT member 2, sequence (O88943 whole entry): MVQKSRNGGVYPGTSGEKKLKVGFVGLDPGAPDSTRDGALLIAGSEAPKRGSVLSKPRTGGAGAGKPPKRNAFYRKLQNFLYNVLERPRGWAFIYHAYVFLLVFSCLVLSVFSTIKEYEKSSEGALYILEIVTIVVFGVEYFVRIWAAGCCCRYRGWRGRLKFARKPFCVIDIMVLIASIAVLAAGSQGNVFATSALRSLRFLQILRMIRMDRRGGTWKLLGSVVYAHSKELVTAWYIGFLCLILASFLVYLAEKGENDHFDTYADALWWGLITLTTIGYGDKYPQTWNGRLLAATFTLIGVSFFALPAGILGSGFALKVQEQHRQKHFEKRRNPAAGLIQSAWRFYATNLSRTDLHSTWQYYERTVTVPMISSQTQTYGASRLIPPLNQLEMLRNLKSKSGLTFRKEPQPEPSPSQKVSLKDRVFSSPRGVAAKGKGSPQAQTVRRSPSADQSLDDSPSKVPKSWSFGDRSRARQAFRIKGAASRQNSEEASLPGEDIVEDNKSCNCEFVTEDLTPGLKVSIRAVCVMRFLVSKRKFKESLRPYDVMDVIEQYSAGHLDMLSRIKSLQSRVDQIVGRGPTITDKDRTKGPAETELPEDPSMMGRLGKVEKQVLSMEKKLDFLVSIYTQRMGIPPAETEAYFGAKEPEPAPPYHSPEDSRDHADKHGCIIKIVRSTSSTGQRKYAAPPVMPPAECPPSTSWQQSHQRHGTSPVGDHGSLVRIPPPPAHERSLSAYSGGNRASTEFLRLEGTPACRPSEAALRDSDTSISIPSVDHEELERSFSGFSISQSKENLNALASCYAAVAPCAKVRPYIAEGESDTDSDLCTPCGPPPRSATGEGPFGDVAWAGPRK
Phosphoethanolamine/phosphocholine phosphatase, sequence (Q8TCT1 whole entry): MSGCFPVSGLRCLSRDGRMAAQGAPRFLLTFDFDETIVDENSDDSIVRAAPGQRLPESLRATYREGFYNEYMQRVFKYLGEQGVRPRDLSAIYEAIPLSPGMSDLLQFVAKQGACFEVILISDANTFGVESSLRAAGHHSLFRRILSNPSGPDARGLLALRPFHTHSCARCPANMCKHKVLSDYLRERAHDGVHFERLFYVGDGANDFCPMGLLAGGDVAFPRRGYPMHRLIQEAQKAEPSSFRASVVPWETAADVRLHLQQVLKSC
Dual specificity protein phosphatase 3, sequence (P51452 whole entry): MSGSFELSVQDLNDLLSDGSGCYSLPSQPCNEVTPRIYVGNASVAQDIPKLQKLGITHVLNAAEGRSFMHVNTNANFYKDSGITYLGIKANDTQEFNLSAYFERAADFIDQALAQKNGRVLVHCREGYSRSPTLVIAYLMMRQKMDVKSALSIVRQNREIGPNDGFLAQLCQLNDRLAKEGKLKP
Protein Rev, sequence (P04618 whole entry): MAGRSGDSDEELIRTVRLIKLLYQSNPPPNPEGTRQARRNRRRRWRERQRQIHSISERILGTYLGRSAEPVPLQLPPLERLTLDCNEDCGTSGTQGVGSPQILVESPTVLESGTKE
Female germline-specific tumor suppressor gld-1, sequence (Q17339 whole entry, the tested form may be a part): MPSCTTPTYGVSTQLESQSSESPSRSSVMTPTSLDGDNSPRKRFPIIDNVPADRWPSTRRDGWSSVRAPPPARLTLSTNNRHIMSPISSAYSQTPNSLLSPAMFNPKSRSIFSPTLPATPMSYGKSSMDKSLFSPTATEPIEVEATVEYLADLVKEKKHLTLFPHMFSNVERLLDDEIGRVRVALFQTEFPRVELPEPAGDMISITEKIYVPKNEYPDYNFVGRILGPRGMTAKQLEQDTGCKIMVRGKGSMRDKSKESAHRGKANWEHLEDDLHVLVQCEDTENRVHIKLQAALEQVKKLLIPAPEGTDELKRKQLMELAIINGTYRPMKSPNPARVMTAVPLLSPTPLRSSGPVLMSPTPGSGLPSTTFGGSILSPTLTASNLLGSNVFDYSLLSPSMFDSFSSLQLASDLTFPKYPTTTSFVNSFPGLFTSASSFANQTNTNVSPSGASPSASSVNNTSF

SMILES: Fc1cccc(NC(=S)Nc2cccnc2)c1
- EC50 [1]: 41.9 µM (active)
- IC50 [2]: > 66 µM (inactive)
- IC50 [3]: > 66 µM (inactive)

SMILES: CCOc1ccccc1C1CC(=O)Nc2cc3c(cc21)OCCO3 (stereo not drawn)
- EC50 [4]: 1.23 µM (active)
- EC50 [5]: 22.3 µM (active)
- IC50 [6]: > 25 µM (inactive)
- EC50 [7]: 0.814 µM (inconclusive)
- EC50 [8]: 0.829 µM (active)
- IC50 [9]: > 80 µM (inactive)

SMILES: COC(=O)c1cc(N2CCN(C)CC2)nc2ccccc12
- AC50 [10]: 137 µM (active)
- AC50 [11]: 59.9 µM (active)

SMILES: Cc1ccc(S(=O)(=O)N2CCN(C(=O)c3cccc(F)c3)CC2)cc1
- Ki [12]: 39.4 µM (inactive)
- EC50 [13]: > 195 µM (not active)

SMILES: O=C1CS/C(=C\[N+](=O)[O-])N1c1ccccc1
- IC50 [14]: 3.03 µM (active)
- IC50 [15]: > 59.6 µM (inactive)
- EC50 [16]: > 300 µM (not active)
- EC50 [17]: 190 µM (active)

SMILES: O=c1c2cc(Br)ccc2nc(-c2ccc([N+](=O)[O-])cc2)n1O
- EC50 [18]: > 150 µM (inactive)
- EC50 [19]: 0.585 µM (active)
- EC50 [20]: 3.07 µM (active)
- IC50 [21]: 4.91 µM (active)
- CC50 [22]: 20.3 µM (active)
- CC50 [23]: 19.9 µM (active)
- CC50 [24]: 18.4 µM (active)
- IC50 [25]: 11.9 µM (active)
- EC50 [26]: 2.56 µM (active)

SMILES: Cc1c(OCC(F)(F)F)ccnc1C[S+]([O-])c1nc2ccccc2[nH]1 (stereo not drawn) [LANSOPRAZOLE]
- IC50 [27]: 0.434 µM (active)
- AC50 [28]: 12.6 µM (inconclusive)
